Laboratory results taken from the Kinase Knowledgebase extract (Sharma et al. 2016).

Tests used:
Assay in all cases: Enzyme Assay
PIK3CA (human) = PIK3CA (human) (UniProt P42336)
PIK3CD (Human) = PIK3CD (Human) (UniProt O00329)
PIK3CB (Human) = PIK3CB (Human) (UniProt P42338)
PIK3CG (human) = PIK3CG (human) (UniProt P48736)
Chain of PIK3CG (human) (P48736 whole entry, looked up): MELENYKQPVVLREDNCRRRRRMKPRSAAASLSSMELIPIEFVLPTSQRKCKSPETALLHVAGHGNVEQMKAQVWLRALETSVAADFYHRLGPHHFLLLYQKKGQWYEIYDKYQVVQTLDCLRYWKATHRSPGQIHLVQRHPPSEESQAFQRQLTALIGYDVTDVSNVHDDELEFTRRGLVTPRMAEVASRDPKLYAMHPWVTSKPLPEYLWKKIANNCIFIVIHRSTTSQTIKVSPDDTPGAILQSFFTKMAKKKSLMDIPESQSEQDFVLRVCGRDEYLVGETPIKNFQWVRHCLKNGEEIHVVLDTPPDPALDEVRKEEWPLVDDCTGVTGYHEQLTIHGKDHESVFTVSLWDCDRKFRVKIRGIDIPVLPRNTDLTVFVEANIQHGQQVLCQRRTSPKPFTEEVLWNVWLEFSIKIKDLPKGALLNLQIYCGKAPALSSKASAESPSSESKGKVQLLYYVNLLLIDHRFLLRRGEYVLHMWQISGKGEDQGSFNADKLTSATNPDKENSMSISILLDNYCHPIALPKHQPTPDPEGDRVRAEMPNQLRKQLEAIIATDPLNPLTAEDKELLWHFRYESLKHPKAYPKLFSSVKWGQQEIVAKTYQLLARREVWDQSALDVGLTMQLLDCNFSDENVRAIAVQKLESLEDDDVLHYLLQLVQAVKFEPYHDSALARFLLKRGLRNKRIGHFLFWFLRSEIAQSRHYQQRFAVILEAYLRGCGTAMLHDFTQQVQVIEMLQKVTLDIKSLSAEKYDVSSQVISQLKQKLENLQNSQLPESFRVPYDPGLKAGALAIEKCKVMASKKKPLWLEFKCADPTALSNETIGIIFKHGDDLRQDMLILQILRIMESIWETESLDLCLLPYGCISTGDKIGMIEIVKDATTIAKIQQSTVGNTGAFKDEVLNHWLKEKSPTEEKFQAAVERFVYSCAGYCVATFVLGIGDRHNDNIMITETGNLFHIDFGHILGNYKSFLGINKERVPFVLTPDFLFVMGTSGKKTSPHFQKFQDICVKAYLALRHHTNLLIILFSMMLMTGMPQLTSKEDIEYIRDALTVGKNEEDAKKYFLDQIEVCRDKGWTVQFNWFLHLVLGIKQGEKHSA

Chain of PIK3CD (Human) (O00329 whole entry, looked up): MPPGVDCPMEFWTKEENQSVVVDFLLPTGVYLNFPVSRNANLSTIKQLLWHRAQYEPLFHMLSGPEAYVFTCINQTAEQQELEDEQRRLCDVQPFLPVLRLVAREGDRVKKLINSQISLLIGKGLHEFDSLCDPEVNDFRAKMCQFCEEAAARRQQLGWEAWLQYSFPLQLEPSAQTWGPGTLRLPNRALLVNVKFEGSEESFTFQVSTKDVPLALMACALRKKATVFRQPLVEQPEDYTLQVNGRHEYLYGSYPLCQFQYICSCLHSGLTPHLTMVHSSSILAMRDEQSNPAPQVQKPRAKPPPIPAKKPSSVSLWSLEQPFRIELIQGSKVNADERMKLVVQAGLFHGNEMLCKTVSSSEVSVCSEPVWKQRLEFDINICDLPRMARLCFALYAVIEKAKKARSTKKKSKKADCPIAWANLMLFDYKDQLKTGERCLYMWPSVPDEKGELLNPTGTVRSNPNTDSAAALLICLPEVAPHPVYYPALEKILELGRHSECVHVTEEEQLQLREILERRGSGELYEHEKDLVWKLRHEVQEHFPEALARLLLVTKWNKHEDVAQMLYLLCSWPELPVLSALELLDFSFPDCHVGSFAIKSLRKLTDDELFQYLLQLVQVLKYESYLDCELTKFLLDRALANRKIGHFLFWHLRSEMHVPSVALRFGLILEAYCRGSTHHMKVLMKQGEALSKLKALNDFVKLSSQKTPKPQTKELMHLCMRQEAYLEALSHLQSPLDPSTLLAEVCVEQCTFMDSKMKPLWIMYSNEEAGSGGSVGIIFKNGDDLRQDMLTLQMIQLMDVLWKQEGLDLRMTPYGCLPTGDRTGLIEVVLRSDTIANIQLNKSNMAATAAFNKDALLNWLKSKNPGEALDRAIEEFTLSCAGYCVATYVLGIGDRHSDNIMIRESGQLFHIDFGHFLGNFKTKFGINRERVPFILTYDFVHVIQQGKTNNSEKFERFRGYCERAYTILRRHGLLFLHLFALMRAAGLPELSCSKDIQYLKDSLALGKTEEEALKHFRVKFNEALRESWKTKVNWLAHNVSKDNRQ
Chain of PIK3CA (human) (P42336 whole entry, looked up): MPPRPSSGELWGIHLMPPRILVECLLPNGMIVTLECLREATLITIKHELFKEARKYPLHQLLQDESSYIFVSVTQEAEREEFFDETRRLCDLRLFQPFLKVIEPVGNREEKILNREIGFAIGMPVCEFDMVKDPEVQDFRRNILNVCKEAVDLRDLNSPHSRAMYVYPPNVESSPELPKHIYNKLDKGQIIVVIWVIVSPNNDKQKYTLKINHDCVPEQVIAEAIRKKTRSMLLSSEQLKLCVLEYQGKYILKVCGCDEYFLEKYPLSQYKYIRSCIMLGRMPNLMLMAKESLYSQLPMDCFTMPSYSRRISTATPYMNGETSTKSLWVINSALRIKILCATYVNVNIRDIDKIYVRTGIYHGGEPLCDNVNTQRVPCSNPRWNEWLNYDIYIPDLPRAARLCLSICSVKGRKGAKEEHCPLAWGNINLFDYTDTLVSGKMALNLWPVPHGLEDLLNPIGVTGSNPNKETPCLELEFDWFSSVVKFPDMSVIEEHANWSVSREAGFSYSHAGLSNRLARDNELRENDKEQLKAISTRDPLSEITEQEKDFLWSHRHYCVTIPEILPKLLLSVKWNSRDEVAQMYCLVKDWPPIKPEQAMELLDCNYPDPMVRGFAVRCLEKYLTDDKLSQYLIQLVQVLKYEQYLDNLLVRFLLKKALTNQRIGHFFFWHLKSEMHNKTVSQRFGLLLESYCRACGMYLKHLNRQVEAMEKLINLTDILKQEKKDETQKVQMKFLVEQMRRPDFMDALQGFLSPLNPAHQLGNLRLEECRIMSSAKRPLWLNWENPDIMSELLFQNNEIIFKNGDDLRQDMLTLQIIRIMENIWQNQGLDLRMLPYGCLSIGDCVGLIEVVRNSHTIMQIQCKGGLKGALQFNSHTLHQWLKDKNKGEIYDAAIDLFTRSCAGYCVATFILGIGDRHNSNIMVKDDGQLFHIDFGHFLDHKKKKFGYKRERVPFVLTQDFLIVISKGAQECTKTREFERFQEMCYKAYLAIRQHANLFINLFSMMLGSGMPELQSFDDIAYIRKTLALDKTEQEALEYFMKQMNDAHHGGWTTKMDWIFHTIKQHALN
Chain of PIK3CB (Human) (P42338 whole entry, looked up): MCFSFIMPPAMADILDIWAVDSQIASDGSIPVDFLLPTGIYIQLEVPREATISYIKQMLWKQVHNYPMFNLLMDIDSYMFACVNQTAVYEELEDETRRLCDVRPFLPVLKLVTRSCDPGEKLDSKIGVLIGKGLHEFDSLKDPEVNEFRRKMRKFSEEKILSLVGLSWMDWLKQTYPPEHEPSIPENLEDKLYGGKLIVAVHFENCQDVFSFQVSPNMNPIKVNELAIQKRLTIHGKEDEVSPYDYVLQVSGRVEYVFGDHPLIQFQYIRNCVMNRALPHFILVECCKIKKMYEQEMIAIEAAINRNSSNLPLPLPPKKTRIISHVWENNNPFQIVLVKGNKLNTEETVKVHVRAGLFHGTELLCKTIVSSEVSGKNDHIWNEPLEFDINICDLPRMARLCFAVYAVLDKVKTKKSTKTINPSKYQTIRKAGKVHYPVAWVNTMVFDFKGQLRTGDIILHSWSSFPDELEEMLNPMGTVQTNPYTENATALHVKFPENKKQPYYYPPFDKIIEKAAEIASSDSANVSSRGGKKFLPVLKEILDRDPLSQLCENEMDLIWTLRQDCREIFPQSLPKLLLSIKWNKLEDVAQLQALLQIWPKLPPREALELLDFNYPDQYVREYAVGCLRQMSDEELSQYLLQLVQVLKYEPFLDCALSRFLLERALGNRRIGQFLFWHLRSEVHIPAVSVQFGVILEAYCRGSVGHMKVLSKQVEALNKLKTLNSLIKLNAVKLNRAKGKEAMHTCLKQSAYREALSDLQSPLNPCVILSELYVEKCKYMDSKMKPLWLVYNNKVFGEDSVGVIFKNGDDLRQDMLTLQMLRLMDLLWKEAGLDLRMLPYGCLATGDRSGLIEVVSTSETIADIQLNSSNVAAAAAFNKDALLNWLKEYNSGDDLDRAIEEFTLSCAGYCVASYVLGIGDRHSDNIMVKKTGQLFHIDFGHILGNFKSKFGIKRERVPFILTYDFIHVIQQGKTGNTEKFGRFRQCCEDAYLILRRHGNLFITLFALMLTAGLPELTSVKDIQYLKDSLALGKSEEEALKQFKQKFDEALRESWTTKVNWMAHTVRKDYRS

SMILES	IC50 (PIK3CA (human))	IC50 (PIK3CD (Human))	IC50 (PIK3CB (Human))	IC50 (PIK3CG (human))	Ki (PIK3CD (Human))
Cc1nc(C(=O)Nc2cc(-c3ccc(Cl)c(NS(C)(=O)=O)c3)cc3[nH]ncc23)cs1	15.8 µM	0.631 µM	15.8 µM	3.98 µM	–
Cc1nc(C(=O)Nc2cc(-c3cnc(Cl)c(CS(=O)(=O)c4ccccc4)c3)cc3[nH]ncc23)cs1	25.1 µM	1 µM	20 µM	> 25.1 µM	–
Cc1nc(C(=O)Nc2cc(-c3cc(Cl)cc4[nH]ccc34)cc3[nH]ncc23)cs1	5.01 µM	0.00794 µM	1 µM	3.98 µM	–
Cc1nc(C(=O)Nc2cc(-c3cnc(C)c(NS(C)(=O)=O)c3)cc3[nH]ncc23)cs1	3.16 µM	0.0316 µM	3.98 µM	0.631 µM	–
O=C(Nc1cc(-c2cccc3[nH]ccc23)cc2[nH]ncc12)c1csc(CN2CCCCC2)n1	20 µM	0.01 µM	15.8 µM	15.8 µM	–
O=C(Nc1cc(-c2cccc3[nH]ccc23)cc2[nH]ncc12)c1csc(Cc2ccccc2)n1	> 25.1 µM	0.0794 µM	> 25.1 µM	12.6 µM	–
COc1ncc(-c2cc(NC(=O)c3csc(C)n3)c3cn[nH]c3c2)cc1NS(C)(=O)=O	0.794 µM	0.0126 µM	0.794 µM	0.2 µM	–
Cc1nc(C(=O)Nc2cc(-c3cnc(Cl)c(NS(C)(=O)=O)c3)cc3[nH]ncc23)cs1	0.316 µM	0.002 µM	1 µM	0.0501 µM	–
Cc1nc(C(=O)Nc2cc(-c3cnc(Cl)c(N(C)S(=O)(=O)c4ccccc4)c3)cc3[nH]ncc23)cs1	> 25.1 µM	0.501 µM	> 25.1 µM	> 25.1 µM	–
O=C(Nc1cc(-c2cccc3[nH]ccc23)cc2[nH]ncc12)c1csc(-c2ccccc2)n1	> 25.1 µM	0.501 µM	12.6 µM	7.94 µM	–
Cc1nc(C(=O)Nc2cc(-c3ccnc4[nH]ccc34)cc3[nH]ncc23)cs1	7.94 µM	0.00794 µM	5.01 µM	0.251 µM	–
Cc1nc(C(=O)Nc2cc(-c3cnc(Cl)c(NS(=O)(=O)c4ccccc4)c3)cc3[nH]ncc23)cs1	0.2 µM	0.00126 µM	0.501 µM	0.0251 µM	–
Cc1nc(C(=O)Nc2cc(-c3cc(F)cc4[nH]ccc34)cc3[nH]ncc23)cs1	12.6 µM	0.0158 µM	3.16 µM	3.16 µM	–
Cc1nc(C(=O)Nc2cc(-c3cccc4[nH]cnc34)cc3[nH]ncc23)cs1	> 25.1 µM	0.316 µM	> 25.1 µM	> 25.1 µM	–
COc1ncc(-c2cc(NC(=O)c3csc(CN4C[C@@H](C)O[C@@H](C)C4)n3)c3cn[nH]c3c2)cc1NS(C)(=O)=O	0.398 µM	> 25.1 µM	2.51 µM	0.316 µM	0.0001 µM
O=C(Nc1cc(-c2cccc3[nH]ccc23)cc2[nH]ncc12)c1cccc(CN2CCCCC2)n1	> 25.1 µM	0.0126 µM	12.6 µM	> 25.1 µM	–
O=C(Nc1cc(-c2cccc3[nH]ccc23)cc2[nH]ncc12)c1csc(CN2CCN3CCC[C@H]3C2)n1	7.94 µM	0.00398 µM	7.94 µM	10 µM	–
COc1cc(-c2cc(NC(=O)c3csc(C)n3)c3cn[nH]c3c2)c2cc[nH]c2c1	6.31 µM	0.0126 µM	2.51 µM	7.94 µM	–
COc1ncc(-c2cc(-c3ncc(CN4C[C@@H](C)O[C@@H](C)C4)o3)c3cn[nH]c3c2)cc1NS(C)(=O)=O	0.501 µM	–	0.631 µM	0.501 µM	–

Next, values leading:

IC50 (PIK3CA (human))	IC50 (PIK3CD (Human))	IC50 (PIK3CB (Human))	IC50 (PIK3CG (human))	Ki (PIK3CD (Human))	SMILES
> 25.1 µM	1 µM	> 25.1 µM	20 µM	–	CC(C)n1nccc1C(=O)Nc1cc(-c2cccc3[nH]ccc23)cc2[nH]ncc12
> 25.1 µM	0.158 µM	12.6 µM	10 µM	–	O=C(Nc1cc(-c2cccc3[nH]ccc23)cc2[nH]ncc12)c1cscn1
12.6 µM	0.00126 µM	3.16 µM	10 µM	–	CC(C)N1CCN(Cc2nnc(-c3cc(-c4cccc5[nH]ccc45)cc4[nH]ncc34)o2)CC1
> 25.1 µM	0.1 µM	3.16 µM	1.26 µM	–	Cc1nnc(-c2cc(-c3cccc4[nH]ccc34)cc3[nH]ncc23)o1
> 25.1 µM	0.794 µM	20 µM	20 µM	–	Cn1nccc1C(=O)Nc1cc(-c2cccc3[nH]ccc23)cc2[nH]ncc12
10 µM	0.1 µM	6.31 µM	6.31 µM	0.0501 µM	O=C(Nc1cc(-c2cccc3[nH]ccc23)cc2[nH]ncc12)c1ccccn1
5.01 µM	0.126 µM	2.51 µM	2 µM	–	Cc1ccc(-c2cc(-c3cccc4[nH]ccc34)cc3[nH]ncc23)o1
> 25.1 µM	15.8 µM	> 25.1 µM	> 25.1 µM	–	CN(C(=O)c1ccccn1)c1cc(-c2cccc3[nH]ccc23)cc2[nH]ncc12
> 25.1 µM	1.26 µM	20 µM	12.6 µM	–	O=C(Nc1cc(-c2cccc3[nH]ccc23)cc2[nH]ncc12)c1ccccc1
> 25.1 µM	0.398 µM	6.31 µM	2.51 µM	–	Cc1csc(-c2cc(-c3cccc4[nH]ccc34)cc3[nH]ncc23)n1
10 µM	0.0631 µM	1.26 µM	0.398 µM	–	Cc1cnc(-c2cc(-c3cccc4[nH]ccc34)cc3[nH]ncc23)o1
5.01 µM	> 25.1 µM	1.58 µM	6.31 µM	0.000126 µM	CC(C)N1CCN(Cc2cnc(-c3cc(-c4cccc5[nH]ccc45)cc4[nH]ncc34)o2)CC1
7.94 µM	0.794 µM	6.31 µM	3.98 µM	–	Cc1ccc(-c2cc(-c3cccc4[nH]ccc34)cc3[nH]ncc23)s1
12.6 µM	0.00398 µM	3.98 µM	15.8 µM	–	CC(C)N1CCN(Cc2coc(-c3cc(-c4cccc5[nH]ccc45)cc4[nH]ncc34)n2)CC1
> 25.1 µM	0.316 µM	> 25.1 µM	6.31 µM	–	Cc1nc(C(=O)Nc2cc(-c3cccc4[nH]ncc34)cc3[nH]ncc23)cs1
12.6 µM	0.126 µM	0.794 µM	0.631 µM	–	Cc1coc(-c2cc(-c3cccc4[nH]ccc34)cc3[nH]ncc23)n1
> 25.1 µM	0.126 µM	15.8 µM	1.26 µM	–	Cc1ccc(C(=O)Nc2cc(-c3cccc4[nH]ccc34)cc3[nH]ncc23)nc1
10 µM	0.00631 µM	7.94 µM	3.16 µM	–	O=C(Nc1cc(-c2cccc3[nH]ccc23)cc2[nH]ncc12)c1csc(CN2CCOCC2)n1
10 µM	0.251 µM	6.31 µM	3.98 µM	–	Cc1cnc(-c2cc(-c3cccc4[nH]ccc34)cc3[nH]ncc23)s1
> 25.1 µM	0.00316 µM	1 µM	2 µM	–	C[C@@H]1CN(Cc2nnc(-c3cc(-c4cccc5[nH]ccc45)cc4[nH]ncc34)o2)C[C@H](C)O1
12.6 µM	0.00501 µM	1.26 µM	2.51 µM	–	C[C@@H]1CN(Cc2coc(-c3cc(-c4cccc5[nH]ccc45)cc4[nH]ncc34)n2)C[C@H](C)O1
10 µM	0.0794 µM	1.26 µM	1.26 µM	–	c1cc(-c2cc(-c3ncco3)c3cn[nH]c3c2)c2cc[nH]c2c1
> 25.1 µM	0.0501 µM	10 µM	3.98 µM	–	Cc1nc(C(=O)Nc2cc(-c3cccc4[nH]ccc34)cc3[nH]ncc23)cs1
